# Measurements published in publication PMC7873226, “Molecular mechanism and structural basis of small-molecule modulation of the gating of acid-sensing ion channel 1” (Communications Biology, 2021).
# Residue numbers refer to the chain shown, from its start.
# Legend:
# rat ASIC1a = target: T1, rat ASIC1a (Rattus norvegicus, UniProt P55926); assay: Kinetics of onset of and recovery (wash) from compound inhibition; assay type: cell-based; details: for time constant of current inhibition: holding pH 8.2, pH 6.0 test pulses; for pH 6.8-induced current, % pH7.4 control: holding pH 7.4, one cell; for pH 6.8-induced current, % pH8.2 control: holding pH 8.2, one cell; for max - % pH7.4 or 8.2 Control (Y): maximal wash current / ss - % pH7.4 or 8.2 Control (Y): steady-state wash current: after 100 nM
# T1 construct: expressed in transfected cells
# T1 sequence (P55926 1-526): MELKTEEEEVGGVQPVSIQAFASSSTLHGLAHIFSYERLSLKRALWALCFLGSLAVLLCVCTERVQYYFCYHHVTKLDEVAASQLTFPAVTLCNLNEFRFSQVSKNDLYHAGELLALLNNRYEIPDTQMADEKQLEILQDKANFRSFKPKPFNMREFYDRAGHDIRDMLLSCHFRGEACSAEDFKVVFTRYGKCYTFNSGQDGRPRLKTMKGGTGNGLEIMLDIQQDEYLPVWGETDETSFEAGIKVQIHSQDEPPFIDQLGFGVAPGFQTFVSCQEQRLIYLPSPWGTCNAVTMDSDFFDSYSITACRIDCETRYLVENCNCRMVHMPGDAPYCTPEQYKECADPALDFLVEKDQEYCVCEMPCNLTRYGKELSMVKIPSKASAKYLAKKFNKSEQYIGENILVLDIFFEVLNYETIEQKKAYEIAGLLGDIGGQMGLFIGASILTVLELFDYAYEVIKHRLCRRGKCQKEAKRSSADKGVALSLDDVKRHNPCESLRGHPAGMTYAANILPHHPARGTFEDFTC
# Procedure: (§1) Chinese Hamster Ovary (CHO) cells stably expressing rat ASIC1a were cultured in Ham’s F12, supplemented with 10% FBS, 1% penicillin–streptomycin and 500 µg/mL G418 and incubated at 37 °C with 5% CO2. Transient transfections of rASIC1a and cASIC1 wild-type or mutant channels in CHO cells were performed with Lipofectamine 3000 (Thermo Fisher Scientific) according to the manufacturer’s recommendations. The green fluorescent protein (GFP) cDNA (at 1/10 the amount of channel cDNA) was co-transfected with channel cDNA to aid the identification of transfected cells under the microscope in patch clamp experiments. All cDNAs were sequence verified.
# Cells were freshly dissociated with CellStripper (Corning) and dispersed in a chamber on the stage of an inverted microscope. Upon formation of the whole-cell conformation, the cell was lifted from the bottom of the chamber and placed at the tip of a tubing perfusing an extracellular solution containing (in mM): 149 NaCl, 2 CaCl2, 4 KCl, 1 MgCl2, 5 glucose, 10 HEPES, pH 7.4, 310 mOsm/L. Extracellular solutions at more basic or acidic pHs were made by titrating the above pH 7.4 solution with NaOH or HCl (5 mM MES was added to solutions at pH 6.0 and lower). Pipette electrodes were filled with an intracellular solution containing (in mM): 135 KCl, 4 MgATP, 0.3 Na2GTP, 10 EGTA, and 20 HEPES, pH 7.2, 290 mOsm/L.
# (§2) All recordings were performed at room temperature using an Axopatch 200B amplifier and pClamp 11 software (Molecular Devices). Currents were measured by whole-cell patch clamp, digitized at 10 kHz and lowpass filtered at 2 kHz. Series resistance was 75% compensated. Responses were elicited by rapid perfusion of acidic solutions using the SF-77B Fast-Step Perfusion device (Warner Instruments) for 40 ms once every 30 s (unless indicated otherwise) and recorded till steady state was reached. The holding potential was 0 mV unless indicated otherwise.
# Baseline values (i.e., current amplitudes at the conditioning pH) were subtracted to obtain responses evoked by the test pH. Responses were normalized for each cell before averaging (see figure legends for more detail on normalization for each type of experiment). Concentration–response data were fitted to a logistic function of the form: R = (A1–A2)/(1 + (C/C0)^h)+A2, where R is the normalized response, C is either pH or compound concentration, C0 is the pH/concentration at which half-maximal response occurs (pH50 or IC50), h is the Hill coefficient, and A1 and A2 are constants. Kinetic parameters were obtained by fitting the data with either a single or double exponential function. Fitted data are shown as solid, dashed, or dotted curves.
# rASIC1a F98A = target: T2, rASIC1a F98A (Rattus norvegicus, UniProt P55926, F98A); assay: Inhibition of pH 6.0-induced current of mutant channel F98A; assay type: cell-based
# T2 construct: expressed in transfected cells; host or cells: CHO cells, transient transfection (GFP cDNA co-transfected separately)
# T2 sequence (P55926 1-526 F98A): T1 sequence (P55926 1-526) with F98A
# Procedure: as §1
# Cells were freshly dissociated with CellStripper (Corning) and dispersed in a chamber on the stage of an inverted microscope. […]
# as §2, with “Series resistance was 75% compensated.” left out, “The holding potential was 0 mV unless indicated otherwise.” left out
# [1] = 100 nM, t = -50 s (wash starts at t = 0 s)
# [2] = holding pH 7.4 (source data Fig. 2d)
# [3] = holding pH 8.2 (source data Fig. 2d)
structure (smiles),measurement,setting,value
COc1ccc(Oc2ccc(-c3nc4cc(C(=N)N)ccc4[nH]3)cc2)cc1OC [JNJ-799760],time constant of current inhibition,rat ASIC1a; 100 nM,1.6 ± 0.1 s
same,time constant of current inhibition,rat ASIC1a; 1 µM,0.2248 ± 0.0189 s
same,IC50,rASIC1a F98A,0.726 ± 0.356 µM
Cc1cc(N2CC(Oc3cc(F)c4c(N)n[nH]c4c3)C2)c(F)cn1 [JNJ-67869386],overshoot of maximum wash current above pre-block control level,"rat ASIC1a; 100 nM, holding pH 7.4",> 50%
same,"pH 6.8-induced current, % pH7.4 control","rat ASIC1a; 100 nM, t = 0 s",4.9%
same,"pH 6.8-induced current, % pH7.4 control","rat ASIC1a; 100 nM, t = -10 s",4.7%
same,"pH 6.8-induced current, % pH7.4 control","rat ASIC1a; 100 nM, t = -20 s",3.6%
same,"pH 6.8-induced current, % pH7.4 control","rat ASIC1a; 100 nM, t = -30 s",3.3%
same,"pH 6.8-induced current, % pH7.4 control","rat ASIC1a; 100 nM, t = -40 s",4.5%
same,"pH 6.8-induced current, % pH7.4 control",rat ASIC1a; [1],6.7%
same,"pH 6.8-induced current, % pH8.2 control","rat ASIC1a; 100 nM, t = 0 s",4.5%
same,"pH 6.8-induced current, % pH8.2 control","rat ASIC1a; 100 nM, t = -10 s",7.4%
same,"pH 6.8-induced current, % pH8.2 control","rat ASIC1a; 100 nM, t = -20 s",4.9%
same,"pH 6.8-induced current, % pH8.2 control","rat ASIC1a; 100 nM, t = -30 s",4.9%
same,"pH 6.8-induced current, % pH8.2 control","rat ASIC1a; 100 nM, t = -40 s",5.7%
same,"pH 6.8-induced current, % pH8.2 control",rat ASIC1a; [1],47.2%
same,time constant of current inhibition,rat ASIC1a; 100 nM,3.6 ± 0.2 s
same,time constant of wash from inhibition,"rat ASIC1a; 100 nM, wash at pH 7.8, pH 6.0-evoked currents",12.6 ± 0.6 s
same,time constant of wash from inhibition,"rat ASIC1a; 100 nM, wash at pH 8.2, pH 6.0-evoked currents",12.7 ± 1.3 s
same,max - % pH7.4 or 8.2 Control (Y): maximal wash current,rat ASIC1a; [2],154.4%
same,ss - % pH7.4 or 8.2 Control (Y): steady-state wash current,rat ASIC1a; [2],95.3%
same,max - % pH7.4 or 8.2 Control (Y): maximal wash current,rat ASIC1a; [3],96.9%
same,ss - % pH7.4 or 8.2 Control (Y): steady-state wash current,rat ASIC1a; [3],96.8%
same,"pH 6.8-induced current, % pH7.4 control","rat ASIC1a; wash after 100 nM, t = 10 s",36.5%
same,"pH 6.8-induced current, % pH7.4 control","rat ASIC1a; wash after 100 nM, t = 20 s",90.8%
same,"pH 6.8-induced current, % pH7.4 control","rat ASIC1a; wash after 100 nM, t = 30 s",132.5%
same,"pH 6.8-induced current, % pH7.4 control","rat ASIC1a; wash after 100 nM, t = 40 s",161.6%
same,"pH 6.8-induced current, % pH7.4 control","rat ASIC1a; wash after 100 nM, t = 50 s",157.3%
same,"pH 6.8-induced current, % pH7.4 control","rat ASIC1a; wash after 100 nM, t = 60 s",153.5%
same,"pH 6.8-induced current, % pH7.4 control","rat ASIC1a; wash after 100 nM, t = 70 s",157.1%
same,"pH 6.8-induced current, % pH7.4 control","rat ASIC1a; wash after 100 nM, t = 80 s",151.7%
same,"pH 6.8-induced current, % pH7.4 control","rat ASIC1a; wash after 100 nM, t = 90 s",149.4%
same,"pH 6.8-induced current, % pH7.4 control","rat ASIC1a; wash after 100 nM, t = 100 s",151.7%
same,"pH 6.8-induced current, % pH7.4 control","rat ASIC1a; wash after 100 nM, t = 110 s",141.4%
same,"pH 6.8-induced current, % pH7.4 control","rat ASIC1a; wash after 100 nM, t = 120 s",127.3%
same,"pH 6.8-induced current, % pH7.4 control","rat ASIC1a; wash after 100 nM, t = 130 s",116.2%
same,"pH 6.8-induced current, % pH7.4 control","rat ASIC1a; wash after 100 nM, t = 140 s",120.1%
same,"pH 6.8-induced current, % pH7.4 control","rat ASIC1a; wash after 100 nM, t = 150 s",108.5%
same,"pH 6.8-induced current, % pH7.4 control","rat ASIC1a; wash after 100 nM, t = 160 s",117.3%
same,"pH 6.8-induced current, % pH7.4 control","rat ASIC1a; wash after 100 nM, t = 170 s",108.8%
same,"pH 6.8-induced current, % pH7.4 control","rat ASIC1a; wash after 100 nM, t = 180 s",100.4%
same,"pH 6.8-induced current, % pH7.4 control","rat ASIC1a; wash after 100 nM, t = 190 s",95.1%
same,"pH 6.8-induced current, % pH7.4 control","rat ASIC1a; wash after 100 nM, t = 200 s",97.0%
same,"pH 6.8-induced current, % pH7.4 control","rat ASIC1a; wash after 100 nM, t = 210 s",100.5%
same,"pH 6.8-induced current, % pH7.4 control","rat ASIC1a; wash after 100 nM, t = 220 s",101.0%
same,"pH 6.8-induced current, % pH8.2 control","rat ASIC1a; wash after 100 nM, t = 10 s",18.2%
same,"pH 6.8-induced current, % pH8.2 control","rat ASIC1a; wash after 100 nM, t = 20 s",43.8%
same,"pH 6.8-induced current, % pH8.2 control","rat ASIC1a; wash after 100 nM, t = 30 s",63.8%
same,"pH 6.8-induced current, % pH8.2 control","rat ASIC1a; wash after 100 nM, t = 40 s",78.5%
same,"pH 6.8-induced current, % pH8.2 control","rat ASIC1a; wash after 100 nM, t = 50 s",78.9%
same,"pH 6.8-induced current, % pH8.2 control","rat ASIC1a; wash after 100 nM, t = 60 s",93.2%
same,"pH 6.8-induced current, % pH8.2 control","rat ASIC1a; wash after 100 nM, t = 70 s",87.4%
same,"pH 6.8-induced current, % pH8.2 control","rat ASIC1a; wash after 100 nM, t = 80 s",90.7%
same,"pH 6.8-induced current, % pH8.2 control","rat ASIC1a; wash after 100 nM, t = 90 s",90.7%
same,"pH 6.8-induced current, % pH8.2 control","rat ASIC1a; wash after 100 nM, t = 100 s",91.5%
same,"pH 6.8-induced current, % pH8.2 control","rat ASIC1a; wash after 100 nM, t = 110 s",90.6%
same,"pH 6.8-induced current, % pH8.2 control","rat ASIC1a; wash after 100 nM, t = 120 s",89.7%
same,"pH 6.8-induced current, % pH8.2 control","rat ASIC1a; wash after 100 nM, t = 130 s",92.5%
same,"pH 6.8-induced current, % pH8.2 control","rat ASIC1a; wash after 100 nM, t = 140 s",93.0%
same,"pH 6.8-induced current, % pH8.2 control","rat ASIC1a; wash after 100 nM, t = 150 s",92.2%
same,"pH 6.8-induced current, % pH8.2 control","rat ASIC1a; wash after 100 nM, t = 160 s",93.0%
same,IC50,rASIC1a F98A,0.626 ± 0.011 µM
